Patent US11026972B2, “Methods for generating macrophages with enhanced cancer phagocytosis” (Georgia State University Research Foundation, Inc., priority 2016, dated 2021)

Experiments:
Type in all cases: cell-based, mouse
[1] = system: cell surface LRP1 and CRT on PEMs; experiment: Macrophage cell surface CRT and LRP1 by FACS; settings: after PMA treatment
Description: FIGS. 6A-6D include data related to our investigation of possible phagocytic receptors on macrophages for phagocytosing healthy self-cells. […] PEM (unstimulated) phagocytosis toward apoptotic B16 cells was tested in the presence of same antibodies and RAP as in A. Error bars are ±SEM. ***P<0.001 vs. phagocytosis in the presence of control IgG. […] PEMs, with or without (ctl.) treatment with LPS, IL-17, IL-6, or PMA, were labeled for cell surface LRP1 and CRT followed by FACS. Increased and decreased expressions were marked by arrows. […] Activated PEM phagocytosis toward RBCs was tested in the presence of antibodies against SR-A, Fc receptor Cd16/32 (10 μg/mL of each), inhibitors against SR-B (BLT1, 5 μM), dectin (laminarin, 100 μg/mL), complement (heparin, 40 U/mL), and antibody against Cd11b (10 μg/mL). Error bars are ±SEM. ***P<0.001 vs. the respective control without inhibition. Data presented in each panel represent at least three independent experiments with n≥4, if applicable.

[2] = system: SIRPα; experiment: SIRPα immunoprecipitation and WB detection of SIRPα ITIM phosphorylation and SHP-1 association; settings: PMA treatment
Description: FIGS. 4A-4E include data related to our experiments on macrophage phagocytic plasticity. FIG. 4A is a panel of illustrative line graphs showing that IL-10 inhibits macrophage phagocytosis toward “self.” PEMs were treated with LPS and activating cytokines along with various concentrations of IL-10 before testing their ability to phagocytose RBCs. FIG. 4B illustrates the phagocytic plasticity of WT red pulp macrophages. […] Treatments of cultured macrophages with LPS and IL-17 re-elicited their phagocytosis toward RBCs. […] Error bars are ±SEM. ***P<0.001 vs. freshly isolated splenic macrophages. FIG. 4D includes microscopic images of RBC phagocytosis by LPS- and IL-17-treated splenic macrophages. […] WT PEMs treated with LPS or IL-17 were further treated with Cd47^+ RBCs or Cd47-AP (10 min, 37° C.) followed by cell lysis, SIRPα immunoprecipitation, and WB detection of SIRPα phosphorylation (SIRPα^pY) and SHP-1 association. Data presented in each panel represent at least three independent experiments with n≥4, if applicable.
FIGS. 5A-5H include data related to our experiments on the role of Syk in phagocytic activation. […] PEMs were treated with LPS and cytokines in the presence of various inhibitors. After washing, inhibitor-free macrophages were tested for phagocytosis toward RBCs. […] PEMs treated with LPS and activating cytokines, or together with IL-10, were tested for total Syk and phosphorylated Syk (Syk^pY, specific at Y519/520). FIG. 5D describes PMA-induced macrophages phagocytosis toward RBCs. WT and SIRPα^−/− PEMs were treated with PMA (37° C., 30 min) before testing phagocytosis toward RBCs. FIG. 5E is a schematic depiction of PKC-Syk-mediated macrophage phagocytic activation toward self. […] Left: Inhibition of Syk by piceatannol and R406 prevented PMA-induced phagocytic activation. […] Error bars are ±SEM. ***P<0.001 vs. the respective controls. […] LPS-treated WT PEMs were further briefly treated with pervanadate before testing for phagocytosis toward RBCs. Error bars are ±SEM. ***P<0.001 vs. the respective controls. […]

[3] = system: PEMs; experiment: Cell signaling inhibitors on LPS/cytokine- or PMA-induced PEM phagocytic activation toward RBCs; settings: PMA treatment
Description: FIGS. 5A-5H include data related to our experiments on the role of Syk in phagocytic activation. […] PEMs were treated with LPS and cytokines in the presence of various inhibitors. After washing, inhibitor-free macrophages were tested for phagocytosis toward RBCs. […] PEMs treated with LPS and activating cytokines, or together with IL-10, were tested for total Syk and phosphorylated Syk (Syk^pY, specific at Y519/520). FIG. 5D describes PMA-induced macrophages phagocytosis toward RBCs. WT and SIRPα^−/− PEMs were treated with PMA (37° C., 30 min) before testing phagocytosis toward RBCs. FIG. 5E is a schematic depiction of PKC-Syk-mediated macrophage phagocytic activation toward self. […] Left: Inhibition of Syk by piceatannol and R406 prevented PMA-induced phagocytic activation. […] Error bars are ±SEM. ***P<0.001 vs. the respective controls. […] LPS-treated WT PEMs were further briefly treated with pervanadate before testing for phagocytosis toward RBCs. Error bars are ±SEM. ***P<0.001 vs. the respective controls. […] Data presented in each panel represent at least three independent experiments with n≥4, if applicable.
(§1) Ex vivo macrophage phagocytosis: Mouse spleens were harvested and minced in cold HBSS followed by passing through nylon meshes. The spleen cells in suspensions were collected by centrifugation followed by washing. After lysis of RBC, splenocytes were plated in cell culture dishes in DMEM with 10% FBS and cultured for 2 h followed by removal of non-adherent cells. The adherent cells, ˜70% being macrophages as determined by anti-F4/80 staining, were tested for phagocytosis. For phagocytosis of RBC or other tissue cells, targeted cells were labeled with CFSE prior to addition into the macrophage-containing wells. Macrophages and target cells, at a ratio of 1:5-10 for RBC or 1:1-2 for other cells, were co-incubated for 30 min at 37° C. followed by gently washing. Macrophage phagocytosis of target cells was then analyzed by fluorescence microscopy and/or by FACS. […] Alternatively, the freshly isolated splenocytes in suspension were incubated with CFSE-labeled RBC and other phagocytic targets for 30 min at 37° C. Macrophage phagocytosis was then determined by FACS after labeling macrophages with anti-F4/80. To test phagocytosis of apoptotic cells, B16 cells were irradiated by UV for 150 seconds at 50 J/m^2 strength. Apoptosis was analyzed at 2, 4, 6, 8 and 18 h post UV irradiation by labeling of the cells with anti-phosphatidylserine (PS) antibody (data not shown) or FITC-conjugated annexin V (data not shown). Cells that were confirmed to be apoptotic were trypsinized, labeled with CFSE, and then co-incubated with macrophages for 30 min at 37° C. After gentle washing, phagocytosis was analyzed by fluorescence microscopy and/or FACS. To test phagocytosis of bacteria and the fungal product zymosan, AlexaFluor-conjugated E.coli strain […] (2 μl suspension, ˜2 μg) or zymosan bioparticles (1 μl suspension, ˜2 μg) (both from Invitrogen) were incubated with macrophages for 30 min followed by washing and analyses. Similar procedures were performed to test phagocytosis of macrophages from various sources. To obtain peritoneal macrophages, peritonea of mice were lavaged by sterile PBS followed by centrifugation to collect cells. Cells suspended in DMEM with 10% FBS were then plated in cell culture dishes and incubated for 2 h at 37° C. followed by removal of non-adherent cells. To produce bone marrow-derived macrophages, freshly isolated bone marrow cells were culture in macrophage colony-stimulating factor (MCSF, ˜10 ng/ml)-containing MEM with 10% FBS for five-six days and macrophage differentiation was confirmed by anti-F4/80 staining.

[4] = system: splenic macrophages, PEMs and BMDMs; experiment: Ex vivo macrophage phagocytosis toward RBCs and other self-cells after activation
In short: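 Mouse splenic or peritoneal macrophages (2 h adherent selection) or BMDMs (M-CSF ~10 ng/ml, 5-6 days) were co-incubated 30 min at 37 °C with CFSE-labelled RBCs (1:5-10) or other cells (1:1-2). Uptake was scored by fluorescence microscopy and/or FACS with anti-F4/80 or anti-CD11b macrophage labelling.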

[5] = system: PEMs; experiment: PEM (unstimulated) phagocytosis toward apoptotic B16 cells; settings: same antibodies and RAP as for RBCs
Description: (§2) FIGS. 6A-6D include data related to our investigation of possible phagocytic receptors on macrophages for phagocytosing healthy self-cells. […] PEMs, with or without (ctl.) treatment with LPS, IL-17, IL-6, or PMA, were labeled for cell surface LRP1 and CRT followed by FACS. […] Activated PEM phagocytosis toward RBCs was tested in the presence of antibodies against SR-A, Fc receptor Cd16/32 (10 μg/mL of each), inhibitors against SR-B (BLT1, 5 μM), dectin (laminarin, 100 μg/mL), complement (heparin, 40 U/mL), and antibody against Cd11b (10 μg/mL). […] Data presented in each panel represent at least three independent experiments with n≥4, if applicable.
Ex vivo macrophage phagocytosis: Mouse spleens were harvested and minced in cold HBSS followed by passing through nylon meshes. […] The adherent cells, ˜70% being macrophages as determined by anti-F4/80 staining, were tested for phagocytosis. […] Macrophage phagocytosis of target cells was then analyzed by fluorescence microscopy and/or by FACS. […] Macrophage phagocytosis was then determined by FACS after labeling macrophages with anti-F4/80. […] Apoptosis was analyzed at 2, 4, 6, 8 and 18 h post UV irradiation by labeling of the cells with anti-phosphatidylserine (PS) antibody (data not shown) or FITC-conjugated annexin V (data not shown). […] After gentle washing, phagocytosis was analyzed by fluorescence microscopy and/or FACS. […]

[6] = system: PEMs; experiment: Activated PEM phagocytosis toward RBCs in the presence of antibodies/inhibitors against phagocytic receptors; settings: anti-CRT 10 μg/mL each; anti-LRP1 20 μg/mL; RAP 20 μg/mL
Description: as §2
as §1, with “To obtain peritoneal macrophages, peritonea of mice were lavaged by sterile PBS followed by centrifugation to collect cells. Cells suspended in DMEM with 10% FBS were then plated in cell culture dishes and incubated for 2 h at 37° C. followed by removal of non-adherent cells. To produce bone marrow-derived macrophages, freshly isolated bone marrow cells were culture in macrophage colony-stimulating factor (MCSF, ˜10 ng/ml)-containing MEM with 10% FBS for five-six days and macrophage differentiation was confirmed by anti-F4/80 staining.” left out

Compound	reduction of CRT and LRP1 expression on PEMs [1]	SIRPα expression, SIRPα ITIM phosphorylation and SHP-1 association [2]	rescue of Syk inhibition-repressed PEM phagocytic activation by LPS [3]	time to elicitation of phagocytosis [4]	phagocytic target discrimination ([4]; PMA-treated WT PEMs)	PEM phagocytosis toward RBCs ([4]; low nanomolar concentrations, 37° C., 30 min)	phagocytosis toward apoptotic cells [5]	LPS/cytokine-induced PEM phagocytosis toward RBCs [6]
CCCCCCCCCCCCCC(=O)O[C@@H]1[C@@H](C)[C@@]2(O)[C@@H](C=C(CO)C[C@]3(O)C(=O)C(C)=C[C@@H]23)[C@@H]2C(C)(C)[C@]12OC(C)=O [PMA, phorbol 12-myristate 13-acetate]	~50%	neither reduced SIRPα expression nor affected SIRPα ITIM phosphorylation and SHP-1 association	failed to rescue	< 30 min	aggressively phagocytosed both CD47^− and CD47^+ RBCs	instantly initiated PEM to phagocytose RBCs	–	–
RAP: LRP1 receptor-associated protein, which inhibits CRT-LRP1 binding	–	–	–	–	–	–	significantly inhibited	failed to inhibit
